In ChEMBL document CHEMBL1130406, “Ortho-substituted benzofused macrocyclic lactams as zinc metalloprotease inhibitors” (J Med Chem, 1997) one finds IC50 data, which are given here for twelve molecules.

Molecules are shown by their SMILES.

One test concerns the target Neprilysin (Homo sapiens, UniProt P08473). Put plainly: Inhibition of neutral endopeptidase.
The target in a further test is T1, Thermolysin (Bacillus thermoproteolyticus, UniProt P00800).
T1 sequence (P00800 whole entry): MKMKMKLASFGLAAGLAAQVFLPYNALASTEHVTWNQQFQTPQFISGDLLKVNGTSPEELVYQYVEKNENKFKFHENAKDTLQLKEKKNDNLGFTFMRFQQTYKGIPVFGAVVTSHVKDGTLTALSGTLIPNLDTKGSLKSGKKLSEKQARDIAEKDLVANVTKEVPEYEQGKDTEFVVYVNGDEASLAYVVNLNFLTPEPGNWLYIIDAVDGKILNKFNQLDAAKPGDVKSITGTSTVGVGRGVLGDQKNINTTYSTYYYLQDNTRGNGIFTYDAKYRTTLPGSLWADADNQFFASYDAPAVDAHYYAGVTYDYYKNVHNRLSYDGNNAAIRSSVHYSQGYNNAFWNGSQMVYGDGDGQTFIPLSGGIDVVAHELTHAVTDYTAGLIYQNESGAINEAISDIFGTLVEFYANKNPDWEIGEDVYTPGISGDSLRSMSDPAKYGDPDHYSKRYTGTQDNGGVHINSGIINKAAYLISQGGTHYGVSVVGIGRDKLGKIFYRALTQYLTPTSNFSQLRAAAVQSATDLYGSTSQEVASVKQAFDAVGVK
Put plainly: Inhibitory concentration required to inhibit thermolysin.

Neprilysin, sequence (P08473 whole entry): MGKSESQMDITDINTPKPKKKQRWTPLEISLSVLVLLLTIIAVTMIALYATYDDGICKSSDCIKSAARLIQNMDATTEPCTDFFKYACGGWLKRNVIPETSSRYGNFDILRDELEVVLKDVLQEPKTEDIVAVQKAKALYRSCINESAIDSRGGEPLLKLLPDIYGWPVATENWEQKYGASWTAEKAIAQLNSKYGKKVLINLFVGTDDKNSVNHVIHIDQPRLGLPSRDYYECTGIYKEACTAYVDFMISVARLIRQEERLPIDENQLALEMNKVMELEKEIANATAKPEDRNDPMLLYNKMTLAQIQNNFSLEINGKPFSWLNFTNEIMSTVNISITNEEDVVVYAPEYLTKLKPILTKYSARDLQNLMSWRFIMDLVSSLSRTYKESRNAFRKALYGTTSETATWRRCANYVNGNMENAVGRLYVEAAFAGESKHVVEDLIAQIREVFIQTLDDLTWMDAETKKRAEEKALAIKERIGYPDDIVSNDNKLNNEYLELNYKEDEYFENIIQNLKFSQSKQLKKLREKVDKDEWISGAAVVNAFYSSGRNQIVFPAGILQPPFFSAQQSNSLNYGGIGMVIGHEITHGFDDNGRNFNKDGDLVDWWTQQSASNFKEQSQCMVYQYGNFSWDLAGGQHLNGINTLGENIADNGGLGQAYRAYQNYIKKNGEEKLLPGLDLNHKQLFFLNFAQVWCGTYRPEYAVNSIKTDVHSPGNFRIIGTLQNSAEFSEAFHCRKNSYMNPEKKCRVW

For the molecule `O=C1N[C@@H](C(=O)O)Cc2ccccc2CCCCCCC[C@@H]1CS`, the results for the IC50 against Neprilysin and at Thermolysin were above 10000 nM and 60000 nM, respectively. The like results for `O=C1N[C@H](C(=O)O)CCCCCc2ccccc2C[C@H]1CS` were, in that order, 4 nM and 4000 nM. Regarding `O=C1N[C@H](C(=O)O)CCCCc2ccccc2C[C@H]1CS`, the IC50 was 7 nM on Neprilysin and 2300 nM on Thermolysin. Take `O=C1N[C@@H](C(=O)O)Cc2ccccc2CCCCCC[C@@H]1CS`: the values for the IC50 at Neprilysin and on Thermolysin were 136 nM and 16000 nM, respectively. As to `O=C1N[C@H](C(=O)O)CCCCc2ccccc2C[C@@H]1CS`, the IC50 against Neprilysin was 0.9 nM; on Thermolysin it was 68 nM. Consider `O=C1N[C@H](C(=O)O)CCCCCCc2ccccc2C[C@@H]1CS`, for which the results for the 50% inhibitory concentration (IC50) on Neprilysin and at Thermolysin were 224 nM and 41000 nM, respectively. For `O=C1N[C@H](C(=O)O)Cc2ccccc2CCCCCC[C@@H]1CS`, the results for the IC50 against Neprilysin and at Thermolysin were 67 nM and 40000 nM, respectively.

Turning to `O=C1N[C@H](C(=O)O)Cc2ccccc2CCCCCCC[C@@H]1CS`, at Neprilysin, the half-maximal inhibitory concentration (IC50) was found to be 900 nM. Regarding `O=C1N[C@H](C(=O)O)CCCCCc2ccccc2C[C@@H]1CS`, the IC50 is 3 nM against Neprilysin and 600 nM against Thermolysin. As to `O=C1N[C@H](C(=O)O)CCCCCCc2ccccc2C[C@H]1CS`, the values for the IC50 at Neprilysin and against Thermolysin were 27 nM and 1800 nM, respectively. Take `O=C1N[C@@H](C(=O)O)Cc2ccccc2CCCCC[C@@H]1CS`: the figures for the IC50 against Neprilysin and against Thermolysin were 99 nM and 49000 nM, respectively.

On Thermolysin, `O=C(O)CNC(=O)C(CS)Cc1ccccc1` (configuration not stated) [THIORPHAN] gave an IC50 of 9500 nM.
